# In patent publication US11337970B2, “Inhibitors of indoleamine 2,3-dioxygenase and methods of their use” (BRISTOL-MYERS SQUIBB COMPANY, priority 2016, dated 2022):
# Target: T1, indoleamine 2,3-dioxygenase (IDO) (Homo sapiens, UniProt P14902)
# T1 construct: host or cells: HeLa cells stimulated with IFNγ (25 ng/mL)
# Experiment: HeLa cell-based indoleamine 2,3-dioxygenase (IDO) assay (kynurenine production)
# Conditions: HeLa cells, IFNγ 25 ng/mL, 48 hour incubation, absorbance at 480 nm
# Procedure: Assessment of inhibitor activity in HeLa cell-based indoleamine 2,3-dioxygenase (IDO) assay:
# HeLa (ATCC® CCL-2) cells were obtained from the ATCC® and cultured in Dulbecco's Modified Eagle Medium supplemented with 4.5 g/L glucose, […] (#10-013-CV, Corning), 2 mM L-alanyl-L-glutamine dipeptide (#35050-061, Gibco), 100U/mL penicillin, 100 μg/mL streptomycin (#SV30010, HyClone) and 10% fetal bovine serum (#SH30071.03 HyClone). Cells were maintained in a humidified incubator at 37° C. in 5% CO2.
# IDO activity was assessed as a function of kynurenine production as follows: HeLa cells were seeded in a 96-well culture plate at a density of 5,000 cells/well and allowed to equilibrate overnight. After 24 hours, the media was aspirated and replaced with media containing IFNγ (#285-IF/CF, R&D Systems) at a final concentration of 25 ng/mL. A serial dilution of each test compound was added to the cells in a total volume of 200 μL of culture medium. After a further 48 hour incubation, 170 μL of supernatant was transferred from each well to a fresh 96-well plate. 12.1 μL of 6.1N trichloroacetic acid (#T0699, Sigma-Aldrich) was added to each well and mixed, followed by incubation at 65° C. for 20 minutes to hydrolyze N-formylkynurenine, the product of indoleamine 2,3-dioxygenase, to kynurenine. The reaction mixture was then centrifuged for 10 mins at 500×g to sediment the precipitate. 100 μL of the supernatant was transferred from each well to afresh 96-well plate. 100 μl of 2% (w/v) p-dimethylaminobenzaldehyde (#15647-7, Sigma-Aldrich) in acetic acid (#A6283, Sigma-Aldrich) was added to each well mixed and incubated at room temperature for 20 mins. Kynurenine concentrations were determined by measuring absorbance at 480 nm and calibrating against an L-kynurenine (#K8625, Sigma-Aldrich) standard curve using a SPECTRAMAX® M2e microplate reader (Molecular Devices). The percentage activity at each inhibitor concentration was determined and IC50 values assessed using nonlinear regression.
# T1 sequence (P14902 whole entry): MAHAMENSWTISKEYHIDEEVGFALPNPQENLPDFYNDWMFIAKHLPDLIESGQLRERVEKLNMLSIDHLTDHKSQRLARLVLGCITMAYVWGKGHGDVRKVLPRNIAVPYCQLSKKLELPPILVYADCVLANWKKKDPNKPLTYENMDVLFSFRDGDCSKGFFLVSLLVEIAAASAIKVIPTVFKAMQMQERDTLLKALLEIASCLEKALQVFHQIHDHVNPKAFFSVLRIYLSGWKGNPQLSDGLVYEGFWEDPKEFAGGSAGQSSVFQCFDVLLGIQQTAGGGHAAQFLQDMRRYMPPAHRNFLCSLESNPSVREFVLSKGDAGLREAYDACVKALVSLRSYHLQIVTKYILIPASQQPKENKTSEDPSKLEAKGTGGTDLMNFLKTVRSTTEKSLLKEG
row,SMILES,IC50
1,"CC(c1nc2ccc(Cl)cc2[nH]1)C1CCC(c2ccnc3ncccc23)CC1 (mixture of isomers) [Example 34, (±)-Cis and trans-(4-(1-(6-chloro-1H-benzo[d]imidazol-2-yl)ethyl)cyclohexyl)-1,8-naphthyridine]",68.1 nM
2,"CCC(c1nc2ccc(Cl)cc2[nH]1)[C@H]1CC[C@@H](c2ccnc(F)c2C)CC1 (single isomer, unassigned) [Example 23-1, 6-chloro-2-(1-((cis)-4-(2-fluoro-3-methylpyridin-4-yl)cyclohexyl)-3-propyl)-1H-benzo[d]imidazole]",998 nM
3,"CC[C@H](c1nc2ncc(Cl)cc2[nH]1)[C@H]1CC[C@@H](c2ccnc3ccc(F)cc32)CC1 (single isomer, unassigned) [Example 21-2, 4-(4-(1-(6-chloro-1H-imidazo[4,5-b]pyridin-2-yl)propyl)cyclohexyl)-6-fluoroquinoline]",1000 nM
4,"C[C@@H](c1cn2ncccc2n1)[C@H]1CC[C@@H](c2ccnc3ccc(F)cc32)CC1 [Example 31, 6-fluoro-4-((cis)-4-((R)-1-(imidazo[1,2-b]pyridazin-2-yl)ethyl)cyclohexyl)quinoline]",607 nM
5,"COCC(c1nc2ccc(Cl)cc2[nH]1)[C@H]1CC[C@@H](c2ccnc3ccc(F)cc32)CC1 (mixture of isomers) [Example 19, (±)-4-((cis)-4-(1-(6-chloro-1H-benzo[d]imidazol-2-yl)-2-methoxyethyl)cyclohexyl)-6-fluoroquinoline]",3.8 nM
6,"CC(c1nc2ccc(Cl)cc2[nH]1)C1CCC(c2ccnc3ncccc23)CC1 (single isomer, unassigned) [Example 35-2]",14.3 nM

# Continued by falling IC50, values first:
row,IC50,SMILES
1,375 nM,"CCC(c1nc2ncc(Cl)cc2[nH]1)[C@H]1CC[C@@H](c2ccnc(F)c2C)CC1 (single isomer, unassigned) [Example 24-1, 6-chloro-2-(1-((cis)-4-(2-fluoro-3-methylpyridin-4-yl)cyclohexyl)-3-propyl)-1H-imidazo[4,5-b]pyridine]"
2,143 nM,"C[C@@H](c1nc2ccc(Cl)cc2c(=O)[nH]1)[C@H]1CC[C@@H](c2ccnc3ccc(F)cc32)CC1 [Example 29, 6-chloro-2-((R)-1-((cis)-4-(6-fluoroquinolin-4-yl)cyclohexyl)ethyl)quinazolin-4(3H)-one]"
3,117 nM,"C[C@H](c1nc2ccc(Cl)cc2[nH]1)[C@H]1CC[C@@H](c2ccnc(C(F)(F)F)c2)CC1 (single isomer, unassigned) [Example 39-3, 6-chloro-2-(1-(4-(2-(trifluoromethyl)pyridin-4-yl)cyclohexyl)ethyl)-1H-benzo[d]imidazole]"
4,99.1 nM,"CCC(c1nc2ncc(Cl)cc2[nH]1)[C@H]1CC[C@@H](c2ccnc3ccc(C(F)(F)F)cc32)CC1 (single isomer, unassigned) [Example 22-2, 4-((cis)-4-(1-(6-chloro-1H-imidazo[4,5-b]pyridin-2-yl)propyl)cyclohexyl)-6-(trifluoromethyl)quinoline]"
5,89.7 nM,"CC[C@H](c1nc2ncc(Cl)cc2[nH]1)[C@H]1CC[C@@H](c2ccnc3ccc(F)cc32)CC1 (single isomer, unassigned) [Example 21-4, 4-(4-(1-(6-chloro-1H-imidazo[4,5-b]pyridin-2-yl)propyl)cyclohexyl)-6-fluoroquinoline]"
6,5.1 nM,"CC[C@H](c1nc2ncc(Cl)cc2[nH]1)[C@H]1CC[C@@H](c2ccnc3ccc(F)cc32)CC1 (single isomer, unassigned) [Example 21-3, 4-(4-(1-(6-chloro-1H-imidazo[4,5-b]pyridin-2-yl)propyl)cyclohexyl)-6-fluoroquinoline]"
7,3.1 nM,"C[C@@H](c1nc2cc(C(F)(F)F)ccc2[nH]1)[C@H]1CC[C@@H](c2ccnc3ccc(F)cc32)CC1 [Example 45, 6-fluoro-4-((1S,4s)-4-((R)-1-(5-(trifluoromethyl)-1H-benzo[d]imidazol-2-yl)ethyl)cyclohexyl) quinoline]"
